Data from patent US20230066011A1, “PYRROLOPYRIMIDINE DERIVATIVE, AND PHARMACEUTICAL COMPOSITION FOR PREVENTING OR TREATING PROTEIN KINASE-RELATED DISEASE COMPRISING SAME AS ACTIVE INGREDIENT” (VORONOI CO., LTD., priority 2019, published 2023).
pIC50: −log10 of the molar value.

What was measured:
Type in all cases: biochemical
human GST-DYRK1A = target: T1, human GST-DYRK1A (Homo sapiens, UniProt Q13627); assay: GST-DYRK1A enzyme inhibition, ADP-Glo kinase assay; details: ATP 10 μM, GST-DYRK1A full length, read-out: DYRK1 IC50
T1 construct: purified human GST-DYRK1A (full length, Thermo Scientifics) enzyme; purchased Thermo Scientifics
Outline: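 Full-length human GST-DYRK1A (10 ng) with 10 μM ATP and specific substrate in 40 mM Tris-HCl pH 7.4, 20 mM MgCl2, 0.5 mg/mL BSA, 50 μM DTT, 1 h at 25 °C. ADP formation read by ADP-Glo luminescence relative to solvent control; IC50 from three data sets.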

human GST-CLK1 = target: T2, human GST-CLK1 (Homo sapiens, UniProt P49759); assay: GST-CLK1 enzyme inhibition, ADP-Glo kinase assay; details: ATP 10 μM, GST-CLK1 129-end
T2 construct: purified human GST-CLK1 (129-end, SignalChem) enzyme; purchased SignalChem
Outline: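 Human GST-CLK1 (129-end, 3 ng) reacted with substrate and 10 μM ATP for 1 h at 25° C in 40 mM Tris-HCl pH 7.4, 20 mM MgCl2, 0.5 mg/mL BSA, 50 μM DTT. ADP-Glo luminescence was normalised to solvent control; IC50 (nM) from 3 data sets.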

LRRK2 = LRRK2 (Homo sapiens, UniProt Q5S007); assay: LRRK2 enzyme inhibition, ADP-Glo kinase assay; set-up: purchased Invitrogen PR8604B; details: ATP 10 μM
Experimental: To evaluate an inhibitory activity of the compound according to the present invention against LRRK2, LRRK2 (G2019S), DYRK1, CLK1, and TTK kinases, experiments were performed as follows.
Each of the Example compounds was reacted with a purified human LRRK2 (Invitrogen #PR8604B) enzyme to evaluate an ability to inhibit an enzyme using a method as described below. A composition of 40 mM Tris-HCl (pH 7.4), 20 mM MgCl2, 0.5 mg/mL BSA, and 50 μM DTT was used as a reaction buffer, and all reactions of test substances were performed in the reaction buffer. Each of the compounds was diluted […] from a 10 mM DMSO stock using a serial dilution method, and enzyme activities were measured at final compound concentrations of 50, 10, 2, 0.4, 0.08, 0.016, 0.0032, 0.00064, 0.000128, 0.0000256, 0.00000512, and 0.000001024 μM. In the test, purified ATP (10 μM) and an enzyme substrate (0.2 μg) were reacted with a human LRRK2 (25 ng) enzyme at 25° C. for 2 hours, and the enzyme activities were determined using an in vitro ADP-Glo™ kinase assay (Promega). An enzyme-activity reaction solution, an ADP-Glo reaction solution, and an enzyme-ability detection solution were reacted at a ratio of 2:2:1 to measure a degree of inhibition of the enzyme activity with luminescence. The degree of inhibition of the enzyme activity according to the treatment concentration of each of the compounds was calculated based on the fluorescence of the enzyme activity of the solvent control which was not treated with the compound. In this case, the concentration of each of the compounds inhibiting 50% of the enzyme activity was determined to be an IC50 (nM) value, and calculated using Prism (Version 5.01; GraphPad) software.

LRRK2 (G2019S) = LRRK2 (G2019S) (Homo sapiens, UniProt Q5S007, G2019S); assay: LRRK2 G2019S enzyme inhibition, ADP-Glo kinase assay; set-up: purchased SignalChem L10-12GG; details: ATP 25 μM
Outline: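 Purified human LRRK2 G2019S (16 ng) with 25 μM ATP and 0.2 μg substrate, 2 h at 25° C. in Tris-HCl pH 7.4, MgCl2, BSA, DTT buffer; compounds at 12 final concentrations, 50 μM down to 0.000001024 μM. ADP-Glo luminescence versus solvent control gave IC50.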

T2 sequence (P49759 129-484 limits assumed): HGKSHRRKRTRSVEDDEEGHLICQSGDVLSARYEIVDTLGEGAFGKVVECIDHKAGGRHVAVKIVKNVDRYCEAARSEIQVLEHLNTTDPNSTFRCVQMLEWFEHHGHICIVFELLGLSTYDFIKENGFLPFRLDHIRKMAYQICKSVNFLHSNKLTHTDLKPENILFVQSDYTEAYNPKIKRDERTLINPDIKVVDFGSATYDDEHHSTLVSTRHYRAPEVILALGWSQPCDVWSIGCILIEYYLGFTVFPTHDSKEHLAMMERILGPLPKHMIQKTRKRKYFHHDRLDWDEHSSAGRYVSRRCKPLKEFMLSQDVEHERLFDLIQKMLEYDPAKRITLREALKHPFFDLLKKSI
LRRK2 (G2019S), sequence (Q5S007 970-2527 G2019S limits assumed): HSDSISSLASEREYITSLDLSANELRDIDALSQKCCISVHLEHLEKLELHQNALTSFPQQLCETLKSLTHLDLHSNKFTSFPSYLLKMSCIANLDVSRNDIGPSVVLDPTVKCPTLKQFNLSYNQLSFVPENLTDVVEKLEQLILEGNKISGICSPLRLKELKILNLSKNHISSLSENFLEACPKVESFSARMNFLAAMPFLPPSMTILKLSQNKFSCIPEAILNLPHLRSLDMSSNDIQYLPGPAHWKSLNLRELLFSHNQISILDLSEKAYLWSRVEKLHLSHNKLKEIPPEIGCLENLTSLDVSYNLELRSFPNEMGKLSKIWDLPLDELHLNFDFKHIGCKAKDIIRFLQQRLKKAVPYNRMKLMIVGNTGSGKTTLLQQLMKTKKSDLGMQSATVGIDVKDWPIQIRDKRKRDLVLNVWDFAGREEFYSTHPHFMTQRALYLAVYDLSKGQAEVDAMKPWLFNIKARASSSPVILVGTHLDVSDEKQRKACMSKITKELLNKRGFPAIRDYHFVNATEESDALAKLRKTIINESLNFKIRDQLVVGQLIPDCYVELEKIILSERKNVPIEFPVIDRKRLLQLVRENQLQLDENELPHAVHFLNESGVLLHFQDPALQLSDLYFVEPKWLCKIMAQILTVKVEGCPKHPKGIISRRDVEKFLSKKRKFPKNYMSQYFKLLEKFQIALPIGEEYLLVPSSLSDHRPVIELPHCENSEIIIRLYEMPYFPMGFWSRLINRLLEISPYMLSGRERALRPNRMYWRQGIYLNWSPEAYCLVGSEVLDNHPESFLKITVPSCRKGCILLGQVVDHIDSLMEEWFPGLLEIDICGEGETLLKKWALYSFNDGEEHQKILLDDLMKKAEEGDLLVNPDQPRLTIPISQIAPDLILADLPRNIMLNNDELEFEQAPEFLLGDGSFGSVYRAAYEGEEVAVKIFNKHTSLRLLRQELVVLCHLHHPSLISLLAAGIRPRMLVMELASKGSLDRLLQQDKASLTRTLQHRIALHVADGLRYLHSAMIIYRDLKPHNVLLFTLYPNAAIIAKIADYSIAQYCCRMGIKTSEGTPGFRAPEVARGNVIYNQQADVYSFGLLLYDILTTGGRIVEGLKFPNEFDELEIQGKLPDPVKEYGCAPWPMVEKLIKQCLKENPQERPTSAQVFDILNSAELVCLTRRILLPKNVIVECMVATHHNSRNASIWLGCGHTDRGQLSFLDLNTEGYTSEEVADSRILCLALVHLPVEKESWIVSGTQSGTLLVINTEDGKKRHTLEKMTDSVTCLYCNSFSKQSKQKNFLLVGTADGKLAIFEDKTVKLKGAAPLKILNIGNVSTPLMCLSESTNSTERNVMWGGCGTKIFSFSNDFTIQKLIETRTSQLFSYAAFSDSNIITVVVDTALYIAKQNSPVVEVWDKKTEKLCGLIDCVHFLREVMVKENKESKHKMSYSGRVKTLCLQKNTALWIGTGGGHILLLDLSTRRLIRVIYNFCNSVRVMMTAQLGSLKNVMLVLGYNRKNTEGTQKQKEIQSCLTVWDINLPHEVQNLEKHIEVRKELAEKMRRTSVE
LRRK2, sequence (Q5S007 970-2527 limits assumed): as the sequence (Q5S007 970-2527 G2019S limits assumed) above, with S1050G counted along it

Row | pIC50 (human GST-DYRK1A) | pIC50 (human GST-CLK1) | pIC50 (LRRK2) | pIC50 (LRRK2 (G2019S)) | SMILES
1 | 6.00 to 6.52 | 6.00 to 6.52 | > 7.00 | > 7.00 | CNc1nc(Nc2ccc(C(=O)N3CCOCC3)c3c2OCCO3)nc2[nH]ccc12 [Example 43, (8-((4-(methylamino)-7H-pyrrolo[2,3-d]pyrimidin-2-yl)amino)-2,3-dihydrobenzo[b][1,4]dioxin-5-yl)(morpholino)methanone]
2 | 6.00 to 6.52 | 6.00 to 6.52 | > 7.00 | > 7.00 | CCNc1nc(Nc2ccc(C(=O)N3CCOCC3)c3c2OCCO3)nc2[nH]ccc12 [Example 58, (8-((4-(ethylamino)-7H-pyrrolo[2,3-d]pyrimidin-2-yl)amino)-2,3-dihydrobenzo[b][1,4]dioxin-5-yl)(morpholino)methanone 2,2,2-trifluoroacetate]
3 | 6.00 to 6.52 | > 7.00 | > 7.00 | > 7.00 | CNc1nc(Nc2ccc(S(=O)(=O)N3CCC(N4CCOCC4)CC3)cc2OC)nc2[nH]cc(C#N)c12 [Example 81, 2-((2-methoxy-4-((4-morpholinopiperidin-1-yl)sulfonyl)phenyl)amino)-4-(methylamino)-7H-pyrrolo[2,3-d]pyrimidine-5-carbonitrile]
4 | 6.00 to 6.52 | 6.52 to 7.00 | > 7.00 | > 7.00 | COc1cc(S(C)(=O)=O)ccc1Nc1nc(NC2CC2)c2c(C#N)c[nH]c2n1 [Example 104, 4-(cyclopropylamino)-2-((2-methoxy-4-(methylsulfonyl)phenyl)amino)-7H-pyrrolo[2,3-d]pyrimidine-5-carbonitrile]
5 | 6.00 to 6.52 | > 7.00 | > 7.00 | > 7.00 | CNc1nc(Nc2ccc(C(=O)N3CCOCC3)c3c2OCCO3)nc2[nH]cc(C#N)c12 [Example 118, 4-(methylamino)-2-((8-(morpholine-4-carbonyl)-2,3-dihydrobenzo[b][1,4]dioxin-5-yl)amino)-7H-pyrrolo[2,3-d]pyrimidine-5-carbonitrile]
6 | 6.00 to 6.52 | > 7.00 | > 7.00 | > 7.00 | CCNc1nc(Nc2ccc(C(=O)N3CCOCC3)c3c2OCCO3)nc2[nH]cc(C#N)c12 [Example 119, 4-(ethylamino)-2-((8-(morpholine-4-carbonyl)-2,3-dihydrobenzo[b][1,4]dioxin-5-yl)amino)-7H-pyrrolo[2,3-d]pyrimidine-5-carbonitrile]
7 | 6.52 to 7.00 | > 7.00 | > 7.00 | > 7.00 | CCCNc1nc(Nc2ccc(C(=O)N3CCOCC3)c3c2OCCO3)nc2[nH]cc(C#N)c12 [Example 120, 2-((8-(morpholine-4-carbonyl)-2,3-dihydrobenzo[b][1,4]dioxin-5-yl)amino)-4-(propylamino)-7H-pyrrolo[2,3-d]pyrimidine-5-carbonitrile]
8 | 6.52 to 7.00 | > 7.00 | > 7.00 | > 7.00 | CC(C)Nc1nc(Nc2ccc(C(=O)N3CCOCC3)c3c2OCCO3)nc2[nH]cc(C#N)c12 [Example 122, 4-(isopropylamino)-2-((8-(morpholine-4-carbonyl)-2,3-dihydrobenzo[b][1,4]dioxin-5-yl)amino)-7H-pyrrolo[2,3-d]pyrimidine-5-carbonitrile]
9 | 6.52 to 7.00 | > 7.00 | > 7.00 | > 7.00 | COCCNc1nc(Nc2ccc(C(=O)N3CCOCC3)c3c2OCCO3)nc2[nH]cc(C#N)c12 [Example 123, 4-((2-methoxyethyl)amino)-2-((8-(morpholine-4-carbonyl)-2,3-dihydrobenzo[b][1,4]dioxin-5-yl)amino)-7H-pyrrolo[2,3-d]pyrimidine-5-carbonitrile]
10 | 6.52 to 7.00 | 6.52 to 7.00 | > 7.00 | > 7.00 | N#Cc1c[nH]c2nc(Nc3ccc(C(=O)N4CCOCC4)c4c3OCCO4)nc(NC3CC3)c12 [Example 124, 4-(cyclopropylamino)-2-((8-(morpholine-4-carbonyl)-2,3-dihydrobenzo[b][1,4]dioxin-5-yl)amino)-7H-pyrrolo[2,3-d]pyrimidine-5-carbonitrile]
11 | 6.00 to 6.52 | 6.52 to 7.00 | > 7.00 | > 7.00 | N#Cc1c[nH]c2nc(Nc3ccc(C(=O)N4CCOCC4)c4c3OCCO4)nc(NC3CCC3)c12 [Example 125, 4-(cyclobutylamino)-2-((8-(morpholine-4-carbonyl)-2,3-dihydrobenzo[b][1,4]dioxin-5-yl)amino)-7H-pyrrolo[2,3-d]pyrimidine-5-carbonitrile]

Second part, the compound before the results:

Row | SMILES | pIC50 (human GST-DYRK1A) | pIC50 (human GST-CLK1) | pIC50 (LRRK2) | pIC50 (LRRK2 (G2019S))
12 | COc1cc(S(=O)(=O)N2CCC(N3CCOCC3)CC2)ccc1Nc1nc(NCCS(C)(=O)=O)c2c(C#N)c[nH]c2n1 [Example 96, 2-((2-methoxy-4-((4-morpholinopiperidin-1-yl)sulfonyl)phenyl)amino)-4-((2-(methylsulfonyl)ethyl)amino)-7H-pyrrolo[2,3-d]pyrimidine-5-carbonitrile] | 6.00 to 6.52 | > 7.00 | > 7.00 | > 7.00
13 | CCNc1nc(Nc2ccc(S(C)(=O)=O)cc2OC)nc2[nH]cc(C#N)c12 [Example 98, 4-(ethylamino)-2-((2-methoxy-4-(methylsulfonyl)phenyl)amino)-7H-pyrrolo[2,3-d]pyrimidine-5-carbonitrile] | 6.00 to 6.52 | 6.00 to 6.52 | > 7.00 | > 7.00
14 | CCCNc1nc(Nc2ccc(S(C)(=O)=O)cc2OC)nc2[nH]cc(C#N)c12 [Example 99, 2-((2-methoxy-4-(methylsulfonyl)phenyl)amino)-4-(propylamino)-7H-pyrrolo[2,3-d]pyrimidine-5-carbonitrile] | 6.00 to 6.52 | 6.00 to 6.52 | > 7.00 | 6.52 to 7.00
15 | COc1cc(S(C)(=O)=O)ccc1Nc1nc(NC(C)C)c2c(C#N)c[nH]c2n1 [Example 101, 4-(isopropylamino)-2-((2-methoxy-4-(methylsulfonyl)phenyl)amino)-7H-pyrrolo[2,3-d]pyrimidine-5-carbonitrile] | 6.00 to 6.52 | 6.00 to 6.52 | > 7.00 | > 7.00
16 | COCCNc1nc(Nc2ccc(S(C)(=O)=O)cc2OC)nc2[nH]cc(C#N)c12 [Example 103, 2-((2-methoxy-4-(methylsulfonyl)phenyl)amino)-4-((2-methoxyethyl)amino)-7H-pyrrolo[2,3-d]pyrimidine-5-carbonitrile] | 6.00 to 6.52 | 6.00 to 6.52 | > 7.00 | > 7.00
17 | COc1cc(S(C)(=O)=O)ccc1Nc1nc(NC2CCC2)c2c(C#N)c[nH]c2n1 [Example 105, 4-(cyclobutylamino)-2-((2-methoxy-4-(methylsulfonyl)phenyl)amino)-7H-pyrrolo[2,3-d]pyrimidine-5-carbonitrile] | 6.00 to 6.52 | 6.00 to 6.52 | > 7.00 | > 7.00
18 | COc1cc(S(C)(=O)=O)ccc1Nc1nc(NC2CCCC2)c2c(C#N)c[nH]c2n1 [Example 106, 4-(cyclopentylamino)-2-((2-methoxy-4-(methylsulfonyl)phenyl)amino)-7H-pyrrolo[2,3-d]pyrimidine-5-carbonitrile] | 6.00 to 6.52 | 6.00 to 6.52 | > 7.00 | > 7.00
19 | COc1cc(S(C)(=O)=O)ccc1Nc1nc(NC2CCCCC2)c2c(C#N)c[nH]c2n1 [Example 107, 4-(cyclohexylamino)-2-((2-methoxy-4-(methylsulfonyl)phenyl)amino)-7H-pyrrolo[2,3-d]pyrimidine-5-carbonitrile] | 6.00 to 6.52 | 6.00 to 6.52 | 6.00 to 6.52 | 6.00 to 6.52
